Measured values reported in patent US12486278B2, “MASP-2 inhibitors and methods of use” (Omeros Corporation, priority 2019, dated 2025).
Where a name gives a salt, the structure may show the parent alone.

target: T1, MASP-2 (CCP1-CCP2-SP) (Homo sapiens, UniProt O00187); assay: Enzymatic Assay for MASP-2 (fluorogenic substrate); type: biochemical; details: fluorogenic substrate based on C2 cleavage site; room temperature, 20 min; 20 mM HEPES pH 7.4, 140 mM NaCl, 0.1% Tween 20
T1 construct: 15 μL of Enzyme MASP-2 (CCP1-CCP2-SP) in Assay Buffer
T1 sequence (O00187 445-686 limits assumed): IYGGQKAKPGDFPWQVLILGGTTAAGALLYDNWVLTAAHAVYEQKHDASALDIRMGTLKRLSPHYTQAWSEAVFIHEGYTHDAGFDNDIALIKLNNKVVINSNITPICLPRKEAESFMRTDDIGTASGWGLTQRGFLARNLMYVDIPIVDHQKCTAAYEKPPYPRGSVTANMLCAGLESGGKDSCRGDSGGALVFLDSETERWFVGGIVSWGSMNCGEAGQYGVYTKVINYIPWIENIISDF
T1 sequence (O00187 298-444 partner limits assumed): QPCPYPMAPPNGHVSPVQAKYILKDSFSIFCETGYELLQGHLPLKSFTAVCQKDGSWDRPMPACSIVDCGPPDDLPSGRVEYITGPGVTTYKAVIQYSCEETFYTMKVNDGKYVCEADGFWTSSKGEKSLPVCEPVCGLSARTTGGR
Method: The MASP-2 assay utilizes a fluorogenic substrate, based on the cleavage site for its natural substrate C2. The assay is run at room temperature in an assay buffer containing 20 mM HEPES, pH 7.4, 140 mM NaCl and 0.1% Tween 20. Assay parameters are adjusted such that the assay is linear with respect to time, enzyme, and substrate concentrations. Under these optimized assays conditions, IC50 values are equivalent to Ki values, except in a few cases of “tight binding” inhibitors. Cases of “tight binding” or possible “slow binding” inhibitors are handled by the methods described in Copeland R. A. (2013) Evaluation of Enzyme Inhibitors in Drug Discovery. 2nd Ed., John Wiley and Sons, Inc., Chapters 5-7.
The MASP-2 assay protocol is carried out as follows. Test compounds are serially diluted in DMSO and then 100 nL of each dilution is transferred to the assay plate(s). 10 μL of Assay Buffer is added, followed by 15 μL of Enzyme MASP-2 (CCP1-CCP2-SP) in Assay Buffer. 15 μL of Substrate in Assay Buffer is then added and mixed to start the reactions. After 20 min at room temperature, 15 μL of a stop solution (0.1 M acetic acid) is added, mixed and the plates are read on a SpectraMax i3x Microplate Reader and exported as Excel files. Each assay plate included a “no inhibitor” (DMSO Only) control, a “no enzyme” control and a reference inhibitor control. % Activity values=100*(average test comp. fluorescence−average “no enzyme” fluorescence)/(average “DMSO only” fluorescence−average “no enzyme” fluorescence). IC50 and Ki values are very reproducible, falling well within ±2-fold.

Cc1nc(N)ccc1CNC(=O)[C@H](C)NC(=O)[C@H]1C[C@H](Cc2ccc(C#N)s2)CN1 [Compound I-86, (2R,4R)—N—((S)-1-(((6-Amino-2-Methylpyridin-3-Yl)Methyl)Amino)-1-Oxopropan-2-Yl)-4-((5-Cyanothiophen-2-Yl)Methyl)Pyrrolidine-2-Carboxamide Dihydrochloride] and Cc1nc(N)ccc1CNC(=O)[C@H](C)NC(=O)[C@H]1C[C@H](Cc2ccn(C)c(=O)c2)CN1 [Compound I-53, (2R,4S)—N—((S)-1-(((6-Amino-2-Methylpyridin-3-Yl)Methyl)Amino)-1-Oxopropan-2-Yl)-4-((1-Methyl-2-Oxo-1,2-Dihydropyridin-4-Yl)Methyl)Pyrrolidine-2-Carboxamide Di-Trifluoroacetate] cannot be ordered by Ki: < 0.5 µM for the first, < 0.5 µM for the second.

Compared with C[C@H](NC(=O)[C@H]1C[C@H](Cc2ccccc2)CN1)C(=O)NCc1ccc2c(c1)ncn2C [Compound I-30, (2R,4S)-4-Benzyl-N—((S)-1-(((1-Methyl-1H-Benzo[D]Imidazol-5-Yl)Methyl)Amino)-1-Oxopropan-2-Yl)Pyrrolidine-2-Carboxamide Trifluoroacetate], C[C@H](NC(=O)[C@H]1C[C@H](Cc2ccccc2)CN1)C(=O)NCc1ccc2nccn2c1 [Compound I-59, (2R,4S)-4-Benzyl-N—((S)-1-((Imidazo[1,2-A]Pyridin-6-Ylmethyl)Amino)-1-Oxopropan-2-Yl Pyrrolidine-2-Carboxamide Trifluoroacetate] is higher in Ki: 2.5 to 10 µM for the first, > 10 µM for the second. The first binds more tightly here.

C[C@H](NC(=O)[C@H]1C[C@@H](c2ccccc2)CCN1)C(=O)NCc1ccc(C(=N)N)s1 [Compound I-91, (2R,4S)—N—((S)-1-(((5-carbamimidoylthiophen-2-yl)methyl)amino)-1-oxopropan-2-yl)-4-phenylpiperidine-2-carboxamide di-trifluoroacetate] and C[C@H](NC(=O)[C@H]1C[C@@H](c2ccccc2)CCN1)C(=O)NCc1cc2c(s1)CNC2 [Compound I-98, (2R,4S)—N—((S)-1-(((5,6-Dihydro-4H-Thieno[2,3-C]Pyrrol-2-Yl)Methyl)Amino)-1-Oxopropan-2-Yl)-4-Phenylpiperidine-2-Carboxamide Di-Trifluoroacetate Salt] cannot be ordered by Ki: < 0.5 µM for the first, < 0.5 µM for the second.

C[C@H](NC(=O)[C@H]1C[C@@H](c2ccccc2)CCN1CCC(=O)O)C(=O)NCc1cc2cnccc2[nH]1 [Compound I-107, 3-((2R,4S)-2-(((S)-1-(((1H-pyrrolo[3,2-c]pyridin-2-yl)methyl)amino)-1-oxopropan-2-yl)carbamoyl)-4-phenylpiperidin-1-yl)propanoic acid di-trifluoroacetate salt] and CCOC(=O)CCN1CC[C@H](c2ccccc2)C[C@@H]1C(=O)N[C@@H](C)C(=O)NCc1cc2cnccc2[nH]1 [Compound I-106, Ethyl 3-((2R,4S)-2-(((S)-1-(((1H-pyrrolo[3,2-c]pyridin-2-yl)methyl)amino)-1-oxopropan-2-yl)carbamoyl)-4-phenylpiperidin-1-yl)propanoate] cannot be ordered by Ki: < 0.5 µM for the first, < 0.5 µM for the second.

C[C@H](NC(=O)[C@H]1C[C@@H](c2cccc(C(N)=O)c2)CN1)C(=O)NCc1ccc(C(=N)N)cc1 [Compound I-15] and COc1cccc([C@@H]2CN[C@@H](C(=O)N[C@@H](C)C(=O)NCc3ccc(C(=N)N)cc3)C2)c1 [Compound I-16, (2R,4R)—N—((S)-1-((4-Carbamimidoylbenzyl)Amino)-1-Oxopropan-2-Yl)-4-(3-Methoxyphenyl)Pyrrolidine-2-Carboxamide Dihydrochloride] cannot be ordered by Ki: < 0.5 µM for the first, < 0.5 µM for the second.

Cc1nc(N)ccc1CNC(=O)[C@@H]1COC(=O)N1C(=O)[C@H]1C[C@H](Cc2ccccc2)CN1 [Compound I-58, (S)—N-((6-Amino-2-Methylpyridin-3-Yl)Methyl)-3-((2R,4S)-4-Benzylpyrrolidine-2-Carbonyl)-2-Oxooxazolidine-4-Carboxamide Di-Trifluoroacetate] and Cc1nc(N)ccc1CNC(=O)[C@@H]1CCN1C(=O)[C@H]1C[C@@H](c2ccccc2)CCN1 [Compound I-63, (S)—N-((6-Amino-2-Methylpyridin-3-Yl)Methyl)-1-((2R,4S)-4-Phenylpiperidine-2-Carbonyl)Azetidine-2-Carboxamide Di-Trifluoroacetate] cannot be ordered by Ki: < 0.5 µM for the first, < 0.5 µM for the second.

C[C@H](NC(=O)[C@H]1C[C@H](c2ccccc2)CN1CC(=O)O)C(=O)NCc1ccc(C(=N)N)cc1 [Compound I-35, 2-((2R,4R)-2-(((S)-1-((4-Carbamimidoylbenzyl)Amino)-1-Oxopropan-2-Yl)Carbamoyl)-4-Phenylpyrrolidin-1-Yl)Acetic Acid Di-Trifluoroacetate] and C[C@H](NC(=O)[C@H]1C[C@@H](c2ccccc2)CCN1CCNS(C)(=O)=O)C(=O)NCc1ccc(C(=N)N)cc1 [Compound I-43, (2R,4S)—N—((S)-1-((4-Carbamimidoylbenzyl)Amino)-1-Oxopropan-2-Yl)-1-(2-(Methylsulfonamido)Ethyl)-4-Phenylpiperidine-2-Carboxamide Di-Trifluoroacetate] cannot be ordered by Ki: < 0.5 µM for the first, < 0.5 µM for the second.

Compared with C[C@H](NC(=O)[C@H]1C[C@@H](c2cccc(-n3cccn3)c2)CCN1)C(=O)NCc1cc(Cl)ccc1-n1cnnn1 [Compound I-79, (2R,4S)-4-(3-(1H-Pyrazol-1-Yl)Phenyl)-N—((S)-1-((5-Chloro-2-(1H-Tetrazol-1-Yl)Benzyl)Amino)-1-Oxopropan-2-Yl)Piperidine-2-Carboxamide Dihydrochloride], C[C@H](NC(=O)[C@H]1C[C@@H](c2ccccc2)CCN1CCCP(=O)(O)O)C(=O)NCc1cc(Cl)ccc1-n1cnnn1 [Compound I-40, (3-((2R,4S)-2-(((S)-1-((5-Chloro-2-(1H-Tetrazol-1-Yl)Benzyl)Amino)-1-Oxopropan-2-Yl)Carbamoyl)-4-Phenylpiperidin-1-Yl)Propyl)Phosphonic Acid Di-Trifluoroacetate] is higher in Ki: < 0.5 µM for the first, 0.5 to 2.5 µM for the second.

C[C@H](NC(=O)[C@H]1C[C@H](c2ccccc2)CN1)C(=O)NCc1[nH]c2ccncc2c1F [Compound I-7, (2R,4R)—N—((S)-1-(((3-Fluoro-1H-Pyrrolo[3,2-C]Pyridin-2-Yl)Methyl)Amino)-1-Oxopropan-2-Yl)-4-Phenylpyrrolidine-2-Carboxamide Di-Trifluoroacetate] and C[C@H](NC(=O)[C@H]1C[C@@H](c2ccccc2)CCN1)C(=O)NCc1cc2cnccc2[nH]1 [Compound I-90, (2R,4S)—N—((S)-1-(((1H-Pyrrolo[3,2-C]Pyridin-2-Yl)Methyl)Amino)-1-Oxopropan-2-Yl)-4-Phenylpiperidine-2-Carboxamide Di-Trifluoroacetate] cannot be ordered by Ki: < 0.5 µM for the first, < 0.5 µM for the second.

C[C@H](NC(=O)[C@H]1C[C@@H](c2ccc(-c3ccccc3)cc2)CCN1)C(=O)NCc1ccc(C(=N)N)cc1 [Compound I-69, (2R,4S)-4-([1,1′-Biphenyl]-4-Yl)-N—((S)-1-((4-Carbamimidoylbenzyl)Amino)-1-Oxopropan-2-Yl)Piperidine-2-Carboxamide Di-Trifluoroacetate] and C[C@H](NC(=O)[C@H]1C[C@H](Cc2ccc(F)c(Cl)c2)CN1)C(=O)NCc1ccc(C(=N)N)cc1 [Compound I-23, (2R,4S)—N—((S)-1-((4-Carbamimidoylbenzyl)Amino)-1-Oxopropan-2-Yl)-4-(3-Chloro-4-Fluorobenzyl)Pyrrolidine-2-Carboxamide Di-Trifluoroacetate] cannot be ordered by Ki: < 0.5 µM for the first, < 0.5 µM for the second.

CCN1C[C@@H](Cc2ccc(F)c(Cl)c2)C[C@@H]1C(=O)N[C@@H](C)C(=O)NCc1cnc2c(c1)c(Cl)cn2C [Compound I-26, (2R,4S)—N—((S)-1-(((3-Chloro-1-Methyl-1H-Pyrrolo[2,3-B]Pyridin-5-Yl)Methyl)Amino)-1-Oxopropan-2-Yl)-4-(3-Chloro-4-Fluorobenzyl)-1-Ethylpyrrolidine-2-Carboxamide] and C[C@H](NC(=O)[C@H]1C[C@H](Cc2ccc(F)c(Cl)c2)CN1)C(=O)NCc1cc2cnccc2[nH]1 [Compound I-2, (2R,4S)—N—((S)-1-(((1H-Pyrrolo[3,2-C]Pyridin-2-Yl)Methyl)Amino)-1-Oxopropan-2-Yl)-4-(3-Chloro-4-Fluorobenzyl)Pyrrolidine-2-Carboxamide Di-Trifluoroacetate] cannot be ordered by Ki: < 0.5 µM for the first, < 0.5 µM for the second.

Cc1nc(N)ccc1CNC(=O)[C@@H]1CCN1C(=O)[C@H]1C[C@H](c2cccc(-c3ccccc3)c2)CN1 [Compound I-64, (S)-1-((2R,4R)-4-([1,1′-Biphenyl]-3-Yl)Pyrrolidine-2-Carbonyl)-N-((6-Amino-2-Methylpyridin-3-Yl)Methyl)Azetidine-2-Carboxamide Di-Trifluoroacetate] and C[C@H](NC(=O)[C@H]1C[C@H](Oc2ccccc2)CN1)C(=O)NCc1cc2cnccc2[nH]1 [Compound I-97, (2R,4S)—N—((S)-1-(((1H-Pyrrolo[3,2-c]pyridin-2-yl)methyl)amino)-1-oxopropan-2-yl)-4-phenoxypyrrolidine-2-carboxamide di-trifluoroacetate] cannot be ordered by Ki: < 0.5 µM for the first, < 0.5 µM for the second.
